Experimental data from PubChem BioAssay (NCI).
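Assay format: 96-well plates, 48-hour exposure. The concentration for full growth arrest is given as TGI.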

What was measured:
Assay in all cases: NCI-60 cell line screen, 48 h
[1] = tested on: HOP-92 NSCLC
[2] = tested on: A549 NSCLC
[3] = tested on: HL-60(TB) leukemia
[4] = tested on: HCT-116 colon
[5] = tested on: CAKI-1 renal
[6] = tested on: OVCAR-8 ovarian
[7] = tested on: RXF 393 renal
[8] = tested on: ACHN renal
[9] = tested on: UACC-62 melanoma
[10] = tested on: PC-3 prostate
[11] = tested on: HCC-2998 colon
[12] = tested on: SK-MEL-5 melanoma
[13] = tested on: NCI-H460 lung
[14] = tested on: DU-145 prostate
[15] = tested on: LOX IMVI melanoma
[16] = tested on: U251 CNS
[17] = tested on: SNB-19 CNS
[18] = tested on: NCI-H522 lung
[19] = tested on: SNB-75 CNS
[20] = tested on: HCT-15 colon
[21] = tested on: SK-OV-3 ovarian
[22] = tested on: OVCAR-3 ovarian
[23] = tested on: T-47D breast
[24] = tested on: MDA-MB-435
[25] = tested on: TK-10 renal
[26] = tested on: COLO 205 colon
[27] = tested on: SF-295 CNS
[28] = tested on: OVCAR-5 ovarian
[29] = tested on: SF-539 CNS
[30] = tested on: KM12 colon
[31] = tested on: OVCAR-4 ovarian
[32] = tested on: MOLT-4 leukemia
[33] = tested on: NCI/ADR-RES ovarian
[34] = tested on: 786-0 renal
[35] = tested on: MDA-N
[36] = tested on: SR leukemia
[37] = tested on: NCI-H226 lung
[38] = tested on: UACC-257 melanoma
[39] = tested on: RPMI-8226 leukemia
[40] = tested on: SK-MEL-28 melanoma
[41] = tested on: IGROV1 ovarian
[42] = tested on: SN12C renal
[43] = tested on: SK-MEL-2 melanoma
[44] = tested on: MCF7 breast
[45] = tested on: SW-620 colon
[46] = tested on: NCI-H23 lung
[47] = tested on: A498 renal
[48] = tested on: UO-31 renal
[49] = tested on: SF-268 CNS
[50] = tested on: EKVX NSCLC
[51] = tested on: HS 578T breast
[52] = tested on: MALME-3M melanoma
[53] = tested on: K-562 leukemia
[54] = tested on: MDA-MB-231 breast
[55] = tested on: M14 melanoma
[56] = tested on: HT29 colon
[57] = tested on: HOP-62 NSCLC
[58] = tested on: CCRF-CEM leukemia
[59] = tested on: BT-549 breast

For `CCN1CCC(O)(/C=C/c2cccc(C)c2)C(C(=O)/C=C/c2cccc(C)c2)C1` (stereo not drawn), the TGI [1] was 7.56 µM, the TGI [2] was 5.97 µM and the TGI [3] was > 100 µM. The TGI [4] was 6.13 µM, the TGI [5] was 4.31 µM and the TGI [6] was 10.4 µM. It also gave a TGI [7] of 3.57 µM, a TGI [8] of 2.93 µM and a TGI [9] of 3.54 µM. The TGI [10] was > 25.4 µM, the TGI [11] was 2.96 µM and the TGI [12] was 3.99 µM. For the same molecule, the TGI [13] was 4.64 µM, the TGI [14] was 13.8 µM and the TGI [15] was 5.02 µM. It also gave a TGI [16] of 3.31 µM, a TGI [17] of 15.4 µM and a TGI [18] of 4.65 µM. It also gave a TGI [19] of 7.69 µM, a TGI [20] of 6.29 µM and a TGI [21] of 11.4 µM. It also gave a TGI [22] of 12.4 µM, a TGI [23] of 8.38 µM and a TGI [24] of 4.61 µM. It also gave a TGI [25] of 3.92 µM, a TGI [26] of 4.67 µM and a TGI [27] of 4.51 µM. It also gave a TGI [28] of 6.98 µM, a TGI [29] of 5.4 µM and a TGI [30] of 3.27 µM. For the same molecule, the TGI [31] was 13.6 µM, the TGI [32] was > 21.5 µM and the TGI [33] was 5.99 µM. The TGI [34] was 5.83 µM, the TGI [35] was 8.67 µM and the TGI [36] was > 100 µM. For the same molecule, the TGI [37] was 5.89 µM, the TGI [38] was 7.31 µM and the TGI [39] was 4.78 µM. It also gave a TGI [40] of 4.49 µM, a TGI [41] of 4.12 µM and a TGI [42] of 7.04 µM. The TGI [43] was 5.56 µM, the TGI [44] was 6.44 µM and the TGI [45] was 7.38 µM. For the same molecule, the TGI [46] was 4.95 µM, the TGI [47] was 4.52 µM and the TGI [48] was 3.06 µM. It also gave a TGI [49] of 3.44 µM, a TGI [50] of 4.25 µM and a TGI [51] of 4.97 µM. The TGI [52] was 3.53 µM, the TGI [53] was > 29.8 µM and the TGI [54] was 11.5 µM. It also gave a TGI [55] of 7.47 µM and a TGI [56] of 3.18 µM.

In the case of `O=C(OC1C#CCSCC#C/C=C\1)c1cnc2ccccc2n1` (stereo not drawn), the TGI [1] is reported as > 100 µM, the TGI [57] is reported as > 100 µM and the TGI [3] is reported as > 100 µM. The TGI [4] was > 100 µM, the TGI [6] was > 100 µM and the TGI [7] was > 100 µM. For the same molecule, the TGI [8] was > 100 µM, the TGI [9] was > 100 µM and the TGI [10] was > 100 µM. The TGI [11] was > 100 µM, the TGI [13] was 33.7 µM and the TGI [14] was > 100 µM. For the same molecule, the TGI [15] was > 100 µM, the TGI [16] was > 100 µM and the TGI [17] was > 100 µM. The TGI [18] was > 100 µM, the TGI [19] was > 100 µM and the TGI [20] was > 100 µM. For the same molecule, the TGI [21] was > 100 µM, the TGI [22] was > 100 µM and the TGI [24] was > 100 µM. For the same molecule, the TGI [25] was > 100 µM, the TGI [26] was 30.8 µM and the TGI [27] was > 100 µM. For the same molecule, the TGI [28] was > 100 µM, the TGI [29] was > 100 µM and the TGI [31] was > 100 µM. The TGI [33] was > 100 µM, the TGI [34] was 26.3 µM and the TGI [35] was > 100 µM. For the same molecule, the TGI [36] was 53.1 µM, the TGI [37] was > 100 µM and the TGI [38] was > 100 µM. The TGI [40] was > 100 µM, the TGI [58] was > 100 µM and the TGI [59] was > 100 µM. For the same molecule, the TGI [41] was > 100 µM, the TGI [42] was > 100 µM and the TGI [43] was > 100 µM. The TGI [44] was > 100 µM, the TGI [45] was > 100 µM and the TGI [46] was > 100 µM. The TGI [47] was > 100 µM, the TGI [48] was > 100 µM and the TGI [49] was > 100 µM. For the same molecule, the TGI [50] was > 100 µM, the TGI [51] was > 100 µM and the TGI [52] was > 100 µM. The TGI [53] was 65.4 µM, the TGI [54] was > 100 µM and the TGI [55] was > 100 µM. For the same molecule, the TGI [56] was > 100 µM.

For `CCCc1c(O)c2ccccc2[nH]c1=O`, the TGI [1] was > 100 µM, the TGI [57] was > 100 µM and the TGI [2] was > 100 µM. The TGI [3] was > 100 µM, the TGI [4] was > 100 µM and the TGI [5] was > 100 µM. For the same molecule, the TGI [6] was > 100 µM, the TGI [8] was > 100 µM and the TGI [10] was > 100 µM. The TGI [11] was > 100 µM, the TGI [12] was > 100 µM and the TGI [13] was > 100 µM. The TGI [14] was > 100 µM, the TGI [15] was > 100 µM and the TGI [16] was > 100 µM. The TGI [17] was > 100 µM, the TGI [18] was > 100 µM and the TGI [19] was > 100 µM. The TGI [20] was > 100 µM, the TGI [22] was > 100 µM and the TGI [24] was > 100 µM. For the same molecule, the TGI [25] was > 100 µM, the TGI [26] was > 100 µM and the TGI [27] was > 100 µM. For the same molecule, the TGI [28] was > 100 µM, the TGI [29] was > 100 µM and the TGI [30] was > 100 µM. The TGI [31] was > 100 µM, the TGI [32] was > 100 µM and the TGI [33] was > 100 µM. For the same molecule, the TGI [34] was > 100 µM, the TGI [35] was > 100 µM and the TGI [36] was > 100 µM. The TGI [37] was > 100 µM, the TGI [38] was > 100 µM and the TGI [39] was > 100 µM. For the same molecule, the TGI [40] was > 100 µM, the TGI [58] was > 100 µM and the TGI [59] was > 100 µM. For the same molecule, the TGI [41] was > 100 µM, the TGI [42] was > 100 µM and the TGI [44] was > 100 µM. The TGI [45] was > 100 µM, the TGI [46] was > 100 µM and the TGI [47] was > 100 µM. The TGI [48] was > 100 µM, the TGI [50] was > 100 µM and the TGI [51] was > 100 µM. The TGI [52] was > 100 µM, the TGI [53] was > 100 µM and the TGI [54] was > 100 µM. For the same molecule, the TGI [56] was > 100 µM.

In the case of `NC(=S)Nc1c(S(N)(=O)=O)cc(S(N)(=O)=O)c(Cl)c1Cl`, the TGI [1] is reported as > 100 µM, the TGI [57] is reported as > 100 µM and the TGI [2] is reported as > 100 µM. For the same molecule, the TGI [3] was > 100 µM, the TGI [4] was > 100 µM and the TGI [5] was > 100 µM. The TGI [6] was > 100 µM, the TGI [7] was > 100 µM and the TGI [9] was > 100 µM. The TGI [10] was > 100 µM, the TGI [12] was > 100 µM and the TGI [14] was > 100 µM. For the same molecule, the TGI [15] was > 100 µM, the TGI [16] was > 100 µM and the TGI [17] was > 100 µM. For the same molecule, the TGI [18] was > 100 µM, the TGI [19] was > 100 µM and the TGI [20] was > 100 µM. For the same molecule, the TGI [21] was > 100 µM, the TGI [22] was > 100 µM and the TGI [24] was > 100 µM. For the same molecule, the TGI [25] was > 100 µM, the TGI [26] was > 100 µM and the TGI [27] was > 100 µM. The TGI [28] was > 100 µM, the TGI [29] was > 100 µM and the TGI [30] was > 100 µM. The TGI [31] was > 100 µM, the TGI [32] was > 100 µM and the TGI [33] was > 100 µM. The TGI [34] was > 100 µM, the TGI [35] was > 100 µM and the TGI [37] was > 100 µM. The TGI [38] was > 100 µM, the TGI [39] was > 100 µM and the TGI [40] was > 100 µM. The TGI [58] was > 100 µM, the TGI [59] was > 100 µM and the TGI [41] was > 100 µM. The TGI [42] was > 100 µM, the TGI [43] was > 100 µM and the TGI [44] was > 100 µM. The TGI [45] was > 100 µM, the TGI [46] was > 100 µM and the TGI [48] was > 100 µM. For the same molecule, the TGI [49] was > 100 µM, the TGI [50] was > 100 µM and the TGI [51] was > 100 µM. The TGI [52] was > 100 µM, the TGI [53] was > 100 µM and the TGI [54] was > 100 µM. For the same molecule, the TGI [55] was > 100 µM and the TGI [56] was > 100 µM.
